Where a name gives a salt, the structure may show the parent alone.
Tests used:
[1] = test system: CD4 or CD8 positive T cells; experiment: Lymphopenia in mice; assay type: in vivo; settings: female C57BL6 mice, 1 mg/kg oral gavage, area under the effect curve over 24 h
Experimental: In mice: Female C57BL6 mice (Simonsen Laboratories, Gilroy Calif.) were housed in an ALAAC accredited facility and the research was approved by the facilities Institutional Animal Care and Use Committee (IACUC). The animals were acclimated to the laboratory for at least 5 days prior to initiation of experiments. Mice (n=3/compound/time-point) were dosed by oral gavage with 1 mg/kg compound formulated in a vehicle consisting of 5% DMSO/5% Tween 20 and 90% 0.1N HCl. Control mice were dosed PO with the vehicle. Terminal whole blood samples were collected from isoflurane anesthetized mice by cardiac puncture into EDTA. Whole blood was incubated with rat anti-mouse CD16/CD32 (Mouse BD Fc Block, #553141), PE-Rat anti-mouse CD45R/B220 (BD #553089), APC-Cy7-Rat anti-mouse CD8a (BD #557654), and Alexa Fluor647-Rat anti-mouse CD4 (BD #557681) for 30 min on ice. Red blood cells were lysed using BD Pharm Lyse Lysing buffer (#555899) and white blood cells were analyzed by FACS. Lymphopenia was expressed as the % of white blood cells that were CD4 or CD8 positive T cells. The overall lymphopenia response over 24 h was estimated by calculating the area under the effect curve (AUEC) using the linear trapezoidal rule.

[2] = target: T1, S1P4 (Homo sapiens, UniProt O95977); experiment: Specificity over other S1P receptors: S1P4-bla TANGO U2OS assay; assay type: cell-based; settings: read-out: S1P4 agonist value (EC50)
T1 construct: Tango fusion (own knowledge: protease cleavage site plus GAL4-VP16 transcription factor at the receptor's C-terminus); host or cells: U2OS (Tango -bla)
T1 sequence (O95977 1-384): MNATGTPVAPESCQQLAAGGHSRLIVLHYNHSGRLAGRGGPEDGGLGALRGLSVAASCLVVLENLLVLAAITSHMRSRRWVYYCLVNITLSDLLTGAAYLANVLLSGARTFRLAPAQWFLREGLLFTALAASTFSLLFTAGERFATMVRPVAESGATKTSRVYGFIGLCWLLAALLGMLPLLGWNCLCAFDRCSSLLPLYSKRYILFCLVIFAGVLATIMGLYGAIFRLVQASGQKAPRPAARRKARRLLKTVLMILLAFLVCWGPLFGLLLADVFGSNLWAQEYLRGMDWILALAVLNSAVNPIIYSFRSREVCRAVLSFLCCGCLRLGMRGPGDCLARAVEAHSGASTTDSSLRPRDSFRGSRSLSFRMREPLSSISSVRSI
Experimental: Cells were seeded into 384-well black wall/clear bottom plates at 10^4 cells/well/19.5 μl assay media (DMEM-phenol free, 0.5% charcoal/dextran stripped serum, 2 mM glutamine, 0.1 mM NEAA, 1 mM Na-Pyruvate, 25 mM Hepes) and incubated for 18 hrs at 37° C. in 5% CO2. Dose response curves (10-point) were generated in 10 mM Hepes, 0.1% Pluronic F127, in the presence of Forskolin. Cells were treated with 0.5 μl compound in the presence of 2 μM Forskolin for 4 hrs at 37° C. The FRET-based β-lactamase fluorescent substrate (LiveBLAzer™-FRET B/G Loading Kit CC4-AM; Invitrogen) was prepared according to manufacturer's directions, and incubated with cells for 2 hrs at room temperature. Plates were read at Ex:410/Em:458 and Ex:410/Em:522, and the response ratio determined. Data was analyzed by non-linear regression to determine the EC50 for inhibition of Forskolin induced cAMP.
To assess compound specificity on other S1P receptors the following cell lines were used: S1P2 CRE-bla CHOK1, S1P3-Gα15 NFAT-bla HEK293T (Invitrogen), S1P4-bla TANGO U2OS (Invitrogen), S1P5-bla TANGO U2OS (Invitrogen). The same assay set up for S1P1 was used but without Forskolin. S1P4 and S1P5 assays were performed in FreeStyle Expression medium (Invitrogen). S1P5 cells were incubated for 48 hrs in prior to treatment with compound.

[3] = Evaluation of therapeutic index in rats: 5 or 14 day toxicology study, lung to body weight ratio; assay type: in vivo, Sprague-Dawley rat; settings: for Dose Resulting in 10% increase in lung weight: rats, oral, 5 or 14 consecutive days, interpolated from dose versus lung to body weight; for TI 14 days: therapeutic index: dose producing 10% lung weight increase / dose producing 50% T-cell depletion, 14 day toxicology study in rats
Experimental: All studies were conducted in non-fasted male and female Sprague-Dawely rats (Simonsen Laboratories). Rats were housed in an AAALAC accredited facility and the research was approved by the facilities Institutional Animal Care and Use Committee (IACUC). The animals were acclimated to the laboratory for at least 5 days prior to initiation of experiments.
The compounds listed in Table 6 were formulated as suspensions in a vehicle consisting of 0.5% carboxymethyl cellulose (Acros Organics) in purified water (pH adjusted to ˜2.2 with hydrochloric acid). The same formulation was used in the rat lymphopenia and toxicology studies described below. The concentration of each compound in suspension was verified to be within ±10% of the target concentration by HPLC-UV.
In the toxicology studies, three male and three female rats per group were assigned to dosing groups using body weight based randomization. A control group in each study received vehicle. All animals were dosed orally by gavage on 5 or 14-consecutive days at a dose volume of 5 mL/kg/day. The animals were observed daily for any manifestations of adverse effect. Twenty-four hours after the final study dose, the rats were anesthetized with isoflurane and a terminal blood sample was taken by intra-cardiac puncture for hematology and clinical chemistry evaluation (IDEXX Laboratories, Sacramento, Calif.). The lungs with trachea were collected, weighed, and then prepared for histology by perfusion with 10% neutral buffered formalin via the trachea. The internally fixed lungs were then preserved in 10% neutral buffered formalin and submitted for histological examination (IDEXX).
The dose of each compound resulting in a 10% increase in the lung to terminal body weight ratio was estimated for each compound by linear interpolation. The therapeutic index was estimated as the ratio of the dose producing 10% lung weight increase to the dose producing 50% T-Cell depletion.
The dose producing a 10% increase in lung to body weight ratio was interpolated from a plot of dose versus lung to body weight. The lymphopenia response was measured 24 hours following the final dose of a 3-5 day multiple dose regimen.

Structure (SMILES)	Mouse Lymphopenia (AUEC) [1]	EC50 [2] [µM]	Dose Resulting in 10% increase in lung weight [3] [mg/kg]	TI 14 days [3]
CC(C)Oc1ccc(-c2nc(-c3cccc4c3CC[C@H]4NCC(=O)N(C)C)no2)cc1C#N [Compound 90, (R)-2-(4-(5-(3-cyano-4-isopropoxyphenyl)-1,2,4-oxadiazol-3-yl)-2,3-dihydro-1H-inden-1-ylamino)-N,N-dimethylacetamide hydrochloride]	1486	> 10	5.5	14
CC(C)Oc1ccc(-c2nc(-c3cccc4c3CC[C@H]4N)no2)cc1C#N [Compound 49, (R)-5-(3-(1-amino-2,3-dihydro-1H-inden-4-yl)-1,2,4-oxadiazol-5-yl)-2-isopropoxy-benzonitrile hydrochloride]	1762	9.03	0.2	2
CC(C)Oc1ccc(-c2nc(-c3cccc4c3CC[C@@H]4N)no2)cc1C#N [Compound 50, (S)-5-(3-(1-amino-2,3-dihydro-1H-inden-4-yl)-1,2,4-oxadiazol-5-yl)-2-isopropoxy-benzonitrile]	1632	7.87	2.0	20
CC(C)Oc1ccc(-c2nc(-c3cccc4c3CC[C@@H]4NCC(=O)N(C)C)no2)cc1C#N [Compound 91, (S)-2-(4-(5-(3-cyano-4-isopropoxyphenyl)-1,2,4-oxadiazol-3-yl)-2,3-dihydro-1H-inden-1-ylamino)-N,N-dimethylacetamide]	1408	> 10	0.3	1
CC(C)Oc1ccc(-c2nc(-c3cccc4c3CC[C@H]4NCCO)no2)cc1C#N [Compound 85, (R)-5-(3-(1-(2-hydroxyethylamino)-2,3-dihydro-1H-inden-4-yl)-1,2,4-oxadiazol-5-yl)-2-isopropoxybenzonitrile]	1425	1.61	2.8	14

Source: patent publication US9388147B2 (Receptos, Inc., priority 2009, dated 2016)
